Measurements as given in publication PMC4979471 (Cell Death Discovery, 2015).
Like-named read-outs stand apart in the source and are kept apart here.

How the values were obtained:
Test in all cases: Kinase selectivity, P33-radiolabeled assay
Format in all cases: biochemical
Conditions in all cases: 10 μM ATP
[1] = target: T1, BMX/ETK (Homo sapiens, UniProt P51813)
T1 construct: purchased Reaction Biology Corp
T1 sequence (P51813 1-675): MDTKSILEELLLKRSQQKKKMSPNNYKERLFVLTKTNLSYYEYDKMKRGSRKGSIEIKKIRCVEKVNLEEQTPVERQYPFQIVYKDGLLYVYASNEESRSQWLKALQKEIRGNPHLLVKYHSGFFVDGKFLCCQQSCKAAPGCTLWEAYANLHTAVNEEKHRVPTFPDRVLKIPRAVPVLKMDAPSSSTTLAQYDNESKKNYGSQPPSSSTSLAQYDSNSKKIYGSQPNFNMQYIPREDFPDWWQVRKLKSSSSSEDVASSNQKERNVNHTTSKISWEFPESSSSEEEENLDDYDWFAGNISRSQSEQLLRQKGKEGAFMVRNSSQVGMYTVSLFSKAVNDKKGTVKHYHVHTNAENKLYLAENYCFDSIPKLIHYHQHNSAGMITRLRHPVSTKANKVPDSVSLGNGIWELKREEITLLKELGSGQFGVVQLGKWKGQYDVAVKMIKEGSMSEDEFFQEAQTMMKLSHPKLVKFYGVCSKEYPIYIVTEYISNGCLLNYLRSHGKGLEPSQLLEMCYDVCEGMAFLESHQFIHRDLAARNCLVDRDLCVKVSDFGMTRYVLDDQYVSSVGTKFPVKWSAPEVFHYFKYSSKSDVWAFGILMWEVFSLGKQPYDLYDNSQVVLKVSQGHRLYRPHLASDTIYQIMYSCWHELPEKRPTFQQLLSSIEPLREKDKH
Summary of the method: (§1)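 ATP at 10 μM; test article at 10 μM, single point, two replicates. Output is activity as % of DMSO.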

[2] = target: T2, ERK2/MAPK1 (Homo sapiens, UniProt P28482)
T2 construct: purchased Reaction Biology Corp
T2 sequence (P28482 whole entry): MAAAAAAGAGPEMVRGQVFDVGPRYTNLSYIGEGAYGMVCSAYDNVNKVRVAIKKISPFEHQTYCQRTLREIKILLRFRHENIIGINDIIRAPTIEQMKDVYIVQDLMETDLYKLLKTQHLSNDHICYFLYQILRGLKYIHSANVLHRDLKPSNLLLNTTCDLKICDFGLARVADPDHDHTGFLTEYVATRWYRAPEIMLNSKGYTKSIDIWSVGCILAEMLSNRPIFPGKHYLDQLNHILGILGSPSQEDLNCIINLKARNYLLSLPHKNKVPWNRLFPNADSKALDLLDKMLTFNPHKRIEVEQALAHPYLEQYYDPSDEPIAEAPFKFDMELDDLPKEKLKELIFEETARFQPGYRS
Summary of the method: as §1

[3] = target: T3, PAK4 (Homo sapiens, UniProt O96013)
T3 construct: purchased Reaction Biology Corp
T3 sequence (O96013 whole entry): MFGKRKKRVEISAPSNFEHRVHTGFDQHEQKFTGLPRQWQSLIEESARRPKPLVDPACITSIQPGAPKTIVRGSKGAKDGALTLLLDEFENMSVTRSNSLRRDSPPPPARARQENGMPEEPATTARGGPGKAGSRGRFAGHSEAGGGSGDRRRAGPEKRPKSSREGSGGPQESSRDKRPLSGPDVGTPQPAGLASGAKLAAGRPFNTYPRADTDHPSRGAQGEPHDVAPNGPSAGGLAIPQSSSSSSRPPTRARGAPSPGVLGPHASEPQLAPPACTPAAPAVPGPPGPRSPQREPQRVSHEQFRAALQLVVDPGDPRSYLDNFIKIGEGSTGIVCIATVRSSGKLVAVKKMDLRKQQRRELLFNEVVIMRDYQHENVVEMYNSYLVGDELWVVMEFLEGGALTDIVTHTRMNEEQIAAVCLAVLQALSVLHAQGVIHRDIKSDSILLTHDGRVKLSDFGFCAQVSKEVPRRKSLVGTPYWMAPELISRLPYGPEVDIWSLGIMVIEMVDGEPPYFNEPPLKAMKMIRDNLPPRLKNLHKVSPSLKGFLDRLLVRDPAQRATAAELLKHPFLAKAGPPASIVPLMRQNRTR
Summary of the method: as §1

[4] = target: T4, CDK5/p35 (Homo sapiens, UniProt Q00535)
T4 construct: purchased Reaction Biology Corp
T4 sequence (Q00535 whole entry): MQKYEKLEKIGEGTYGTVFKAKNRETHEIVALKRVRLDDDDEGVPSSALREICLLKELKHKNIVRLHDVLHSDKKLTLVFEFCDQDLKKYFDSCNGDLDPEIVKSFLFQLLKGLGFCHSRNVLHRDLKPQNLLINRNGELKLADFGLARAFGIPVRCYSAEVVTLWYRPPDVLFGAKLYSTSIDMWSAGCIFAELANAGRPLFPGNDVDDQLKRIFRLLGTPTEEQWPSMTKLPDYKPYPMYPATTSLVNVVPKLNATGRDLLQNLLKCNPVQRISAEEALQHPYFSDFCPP
T4 sequence (Q15078 whole entry partner): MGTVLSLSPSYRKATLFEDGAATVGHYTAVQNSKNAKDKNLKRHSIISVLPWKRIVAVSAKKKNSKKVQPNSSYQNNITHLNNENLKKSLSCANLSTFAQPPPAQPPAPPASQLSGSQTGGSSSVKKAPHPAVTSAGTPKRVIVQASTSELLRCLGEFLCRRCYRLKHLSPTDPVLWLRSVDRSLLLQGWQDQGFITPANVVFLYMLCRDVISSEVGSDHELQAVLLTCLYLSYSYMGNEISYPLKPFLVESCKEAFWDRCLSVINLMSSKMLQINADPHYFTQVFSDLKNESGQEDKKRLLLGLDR
Summary of the method: as §1

[5] = target: T5, TSSK2 (Homo sapiens, UniProt Q96PF2)
T5 construct: purchased Reaction Biology Corp
T5 sequence (Q96PF2 1-358): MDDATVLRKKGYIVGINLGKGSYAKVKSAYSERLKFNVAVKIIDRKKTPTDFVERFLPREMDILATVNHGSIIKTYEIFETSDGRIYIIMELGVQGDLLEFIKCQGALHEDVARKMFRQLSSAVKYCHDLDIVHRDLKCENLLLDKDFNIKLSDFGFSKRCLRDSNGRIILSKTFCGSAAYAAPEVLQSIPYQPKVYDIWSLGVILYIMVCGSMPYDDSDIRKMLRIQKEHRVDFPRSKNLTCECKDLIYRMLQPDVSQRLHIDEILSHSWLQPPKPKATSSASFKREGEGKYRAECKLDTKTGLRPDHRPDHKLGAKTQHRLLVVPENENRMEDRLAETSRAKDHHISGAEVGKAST
Summary of the method: as §1

[6] = target: T6, EPHB3 (Homo sapiens, UniProt P54753)
T6 construct: purchased Reaction Biology Corp
T6 sequence (P54753 34-998): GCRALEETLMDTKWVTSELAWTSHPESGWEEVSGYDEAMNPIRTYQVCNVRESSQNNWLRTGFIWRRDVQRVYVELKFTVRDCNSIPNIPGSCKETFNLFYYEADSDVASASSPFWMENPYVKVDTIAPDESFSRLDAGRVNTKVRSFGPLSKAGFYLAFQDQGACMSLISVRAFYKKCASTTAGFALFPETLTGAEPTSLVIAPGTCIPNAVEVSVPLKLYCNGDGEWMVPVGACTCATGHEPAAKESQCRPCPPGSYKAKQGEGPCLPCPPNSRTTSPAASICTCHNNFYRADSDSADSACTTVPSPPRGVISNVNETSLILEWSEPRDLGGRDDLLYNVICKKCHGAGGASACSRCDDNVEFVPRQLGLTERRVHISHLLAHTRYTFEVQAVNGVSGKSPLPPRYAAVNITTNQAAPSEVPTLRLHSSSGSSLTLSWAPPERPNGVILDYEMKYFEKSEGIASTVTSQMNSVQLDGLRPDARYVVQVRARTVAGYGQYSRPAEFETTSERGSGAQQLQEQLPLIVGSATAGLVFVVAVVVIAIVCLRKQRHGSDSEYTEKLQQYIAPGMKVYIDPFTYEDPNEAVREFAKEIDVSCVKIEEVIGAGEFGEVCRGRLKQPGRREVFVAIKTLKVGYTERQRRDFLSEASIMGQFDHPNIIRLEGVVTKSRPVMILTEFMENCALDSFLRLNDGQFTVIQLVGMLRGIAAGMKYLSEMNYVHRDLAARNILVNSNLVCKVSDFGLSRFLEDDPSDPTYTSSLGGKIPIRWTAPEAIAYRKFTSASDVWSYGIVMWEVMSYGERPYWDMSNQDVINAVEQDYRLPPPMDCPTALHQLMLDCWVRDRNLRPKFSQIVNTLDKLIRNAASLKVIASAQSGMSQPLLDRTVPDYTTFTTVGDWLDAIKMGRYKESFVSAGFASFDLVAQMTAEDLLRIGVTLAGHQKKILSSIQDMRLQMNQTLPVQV
Summary of the method: as §1

[7] = read-out: % Enzyme Activity (relative to DMSO controls) AVG
[8] = read-out: % Enzyme Activity (relative to DMSO controls) Data 1
[9] = read-out: % Enzyme Activity (relative to DMSO controls) Data 2

With `CC(C)(C)C(=O)N1N=CC[C@H]1c1ccccc1` [GSK′963] the remaining activity at 10 µM [1, 7] was 99.9%, the remaining activity at 10 µM [1, 8] was 94.5% and the remaining activity at 10 µM [1, 9] was 105%. The remaining activity at 10 µM [2, 7] was 97.5%, the remaining activity at 10 µM [2, 8] was 96.5% and the remaining activity at 10 µM [2, 9] was 98.5%. It also gave a remaining activity at 10 µM [3, 7] of 93%, a remaining activity at 10 µM [3, 8] of 95.4% and a remaining activity at 10 µM [3, 9] of 90.5%. For the same compound, the remaining activity at 10 µM [4, 7] was 96.2%, the remaining activity at 10 µM [4, 8] was 95.5% and the remaining activity at 10 µM [4, 9] was 97%. The remaining activity at 10 µM [5, 7] was 104%, the remaining activity at 10 µM [5, 8] was 102% and the remaining activity at 10 µM [5, 9] was 105%. For the same compound, the remaining activity at 10 µM [6, 7] was 105%, the remaining activity at 10 µM [6, 8] was 103% and the remaining activity at 10 µM [6, 9] was 107%.
